In one data set the test system is MRSA (ATCC #33591). Put plainly: rabbit ischemic wound model. Type of data set: in vivo, New Zealand white rabbits. How it is done: 5-(2,5-bis(4-chloro-2-isopropylphenyl)thiophen-3-yl)-1H-tetrazole was tested for its efficacy against infection in the rabbit ischemic wound model, the gold standard animal model mimicking human DUI. In this model, the ear is made ischemic by division of central and rostral nutrient arteries of New Zealand white rabbits. New Zealand White rabbits were employed for this study and their husbandry and experimental manipulation adhered to standard Guides for the Care and Use of Laboratory Animals (2001). An incision was made to the level of bare cartilage at the base of the ear and followed by injection intradermally with epinephrine to obtain vasoconstriction and aid with skin detachment. Skin is separated from the underlying perichondrium and removed with a 6.0 mm aortic biopsy punch. Food and water were given ad libidum and animals were acclimatized for 7 days with photoperiods of alternating 12 h light and dark provided, along with analgesic (BUPRENEX™ (buprenorphine) 0.02 mg/kg sc) and anaesthesia (isoflurane (0.5-5% with oxygen carrier 0.5-2 L/min) during procedures.
An ischemia wound healing model was conducted surgically. Each wound was inoculated with 50 μl of 2×10^7 CFU/ml MRSA (ATCC #33591) and dressed. After one day, wounds were treated with either 50 μl control cream containing vehicle (N=4), 50 μl containing mupirocin (N=4), or 50 μl cream containing 5-(2,5-bis(4-chloro-2-isopropylphenyl)thiophen-3-yl)-1H-tetrazole (N=8) daily. Clinical observations were performed on days 1, 3, 5, 7, 10 and 14. Wounds were assessed and observations recorded using the Draize scoring system. Digital photographs of each wound were obtained and documented.
On day 14 post-wounding, under anesthesia, the animals were euthanized with an intravenous injection of BEUTHANASIA-D™ ([…] and phenytoin sodium) at a dosage of 150 mg/kg of body weight. Specimens including the entire wound, along with approximately 2-3 mm of the normal unwounded skin margins were harvested. Each ear wound specimen was sectioned into halves. For one half of the wound, the wound was placed into a container with 10% neutral buffered formalin and processed for routine histological evaluation. Wound organization was scored for four parameters on a scale of 0-4 at the wound site for inflammation, granulation, angiogenesis, and epithelialization. Wounds were characterized in a blinded manner by a board certified member of the College of American Pathologists. The other half of the wound was weighed (mg) in a sterile Petri dish, then placed in a sterile disposable tissue grinder and homogenized for quantitative microbiology. The tube containing the ground tissue sample was filled with 5 ml 0.85% sterile saline. Five 1:10 serial dilutions were then prepared with 0.5 ml aliquots and 4.5 ml of sterile saline per aliquot. Subsequently, 0.1 ml of the homogenate and each dilution was drop plated on trypticase soy agar and placed in an incubator at 37° C. The number of viable organisms per wound was recorded as cfu/gram of tissue.

Data set [1] concerns S. aureus MRSA clinical isolate from Manchester. Put plainly: broth microdilution MIC (CLSI). Type of data set: cell-based. The following applies: Staphylococcus aureus; S. aureus MRSA clinical isolate from Manchester; read-out: Antibacterial activity (MIC). The procedure: (§1) Using a broth microdilution assay according to Clinical Laboratory Standards Institute (CSLI) guidelines, we tested 5-(2,5-bis(4-chloro-2-isopropylphenyl)thiophen-3-yl)-1H-tetrazole (“Test Article” in below table) to establish MICs against a broad range of MDR bacteria and noted substantive activity versus methicillin-resistant Staphylococcus aureus (MRSA), vancomycin-resistant Enterococcus (VRE) and Streptococcus spp. Antimicrobial susceptibility testing was performed by a microdilution broth assay according to CLSI guidelines. The inoculum was prepared from stationary-phase cultures diluted in water. Microtiter plate wells received aliquots of 100 μL of the compound diluted in Mueller-Hinton II cation adjusted media. The final concentration of compound typically ranged from 250 to 0.125 μg/ml in serial two-fold dilutions. In addition to the test compound, growth and sterility controls were included, along with DMSO vehicle control rows. The microtiter plates were inoculated with 5×10^5 bacteria and incubated overnight at 35° C. in a humidified atmosphere.
For orientation: Broth dilution looks for growth in wells or tubes with falling amounts of substance.

The test system of the next data set is S. aureus MRSA ATCC43300. The experiment in a line: broth microdilution MIC (CLSI). Type of data set: cell-based. The following applies: Staphylococcus aureus; S. aureus MRSA ATCC43300; read-out: Antibacterial activity (MIC). How it is done: as §1
In data set [2] the test system is S. aureus MRSA clinical isolate penicillin and erythromycin resistant. The experiment in a line: broth microdilution MIC (CLSI). Type of data set: cell-based. Particulars: Staphylococcus aureus; S. aureus MRSA clinical isolate penicillin and erythromycin resistant; read-out: Antibacterial activity (MIC). How it is done: as §1
A short description of data set [3]: dermal pharmacokinetics on full thickness human cadaver skin (Franz cells). The following applies: 2% w/w in GLAXAL BASE. Type of data set: in vitro ADME. The text has this:
Full thickness human skin was taken from the torso of a post-mortem human donor and stores at −80 degrees Celsius. On the day of the study, skin pieces were thawed for at least […] at room temperature in saline, then divided into individual pieces of approximately 2 cm length×2 cm width from which seven pieces of full thickness skin was selected. Approximately ⅔ of the width of the hypodermis layer was trimmed in order to mount the selected pieces into Franz cells. Receiver buffer was prepared (Krebs-Ringer bicarbonate buffer containing 10 mM HEPES, 15 mM sodium bicarbonate, and 1.2 mM calcium chloride; adjusted to pH 7.4 and fortified with 0.1% sodium azide and 1% bovine serum albumin). Each piece was equilibrated for 30 min with 12 mL of receiver buffer at 32 degrees Celsius by a water-jacket/stirring module running at 600 rpm. Transepithelial water loss was read for each piece after 30 mins using a vapometer. Exposed surface area of the piece was 1.77 square cm.
Approximately 300 ul of 5-(2,5-bis(4-chloro-2-isopropylphenyl)thiophen-3-yl)-1H-tetrazole formulated in 2% w/w GLAXAL BASE™ (Emollient Cream) was applied directly through syringe on top of each piece. Receiver samples were taken from the receiver compartment of each Franz cell at 3, 6, 12, 18, and 24 hours and replaced with an equal volume of fresh, warm buffer to maintain sink conditions. At the end of 24 hours, the bulk amount of formulation remaining on each piece of skin was wiped using cotton tips, stored together in a dry vial for analysis. Epidermis and dermis were then separated gently using forceps after a brief heat treatment at 60 degrees Celsius for no longer than 2 minutes. Each layer was then blotted dry, weighted and stored in separate glass vials. All samples were stored at −80 degrees Celsius until analysis by LC/MS-MS.
The cumulative concentrations of 5-(2,5-bis(4-chloro-2-isopropylphenyl)thiophen-3-yl)-1H-tetrazole that permeated at each time point were calculated by the sum of the measured concentration at that time point plus 1/12 of the measured concentrations at the previous time points (since 1 mL out of the 12 mL total receiver volume is withdrawn and replaced each time). The flux values over the course of the 24 hour permeation period were calculated from the slope of the linear portion of the curve. Flux was represented by the equation Flux=d[(Cr-T×Vr)/dt/A where Cr-T is the cumulative concentration at each time point (ng/mL); Vr is 12 mL; t is duration in hours; and A is the surface area of 1.77 square cm.

The mark [4] stands for this setting: topical daily, day 14, compared to the control.
[5] abbreviates: end of 24 hour permeation, LC-MS/MS.

Values after ≈ are worked out from the molar mass of the structure shown.

Regarding `CC(C)c1cc(Cl)ccc1-c1cc(-c2nnn[nH]2)c(-c2ccc(Cl)cc2C(C)C)s1` [Test Article, 5-(2,5-bis(4-chloro-2-isopropylphenyl)thiophen-3-yl)-1H-tetrazole], the “percent wound contraction over time (FIG. 1)” value in the data set with MRSA (ATCC #33591) (topical daily to day 14, p<0.001 vs control, p<0.03 vs mupirocin) is on record as “better than the mupirocin treated group”. In addition, the “effect on erythema and edema” value in the data set on MRSA (ATCC #33591) (topical daily, Draize scoring) is reported as “positive effect”. Besides, in the data set on MRSA (ATCC #33591) (setting [4]), the CFU drop is listed as 4 log and the “reduction in bacterial survival” value is recorded as over 99%. Moreover, in the data set on MRSA (ATCC #33591) (topical daily, versus mupirocin group), the “wound healing and epithelialization” value was “significantly better than the mupirocin group”. The minimal inhibitory concentration (MIC) – broadly, the lowest concentration found to suppress growth – in data set [1] was found to be 0.5 µg/mL (≈ 1.09 µM). In addition, the MIC in the data set on S. aureus MRSA ATCC43300 came out at 0.5 µg/mL (≈ 1.09 µM). The MIC in data set [2] worked out at 0.5 µg/mL (≈ 1.09 µM). Also, in data set [3] (24 hour permeation period), the “Flux from top through to bottom of skin” value is given as “less than 0.141 ng/hr/cm^2”. Also, in data set [3] (end of 24 hour permeation period, lower limit of detection 0.5 ng/mL), the “compound in the receiver samples” value is “no detectable”. In data set [3] (setting [5]), the level in dermis was found to be 0.821±0.469 ng per mg tissue, the level in epidermis came to 163±58.0 ng per mg tissue and the level in hypodermis was determined as 1.86±1.04 ng per mg tissue.

Values taken from patent US12358902B2, “5-(2,5-bis(4-chloro-2-isopropylphenyl)thiophen-3-yl)-1H-tetrazole for the topical treatment of bacterial infections” (DENOVAMED INC., priority 2017, dated 2025).
